According to ChEMBL document CHEMBL1141941, “Biaryl diamides as potent melanin concentrating hormone receptor 1 antagonists” (Bioorg Med Chem Lett, 2005):

Experiments:
[1] = biological target: Melanin-concentrating hormone receptor 2 (Homo sapiens, UniProt Q969V1); assay: Antagonist activity against human MCH2 receptor; format: functional
[2] = biological target: Melanin-concentrating hormone receptor 1 (Homo sapiens, UniProt Q99705); assay: Antagonist activity against human MCH1 receptor; format: functional
Sequence of Melanin-concentrating hormone receptor 1 (Q99705 whole entry): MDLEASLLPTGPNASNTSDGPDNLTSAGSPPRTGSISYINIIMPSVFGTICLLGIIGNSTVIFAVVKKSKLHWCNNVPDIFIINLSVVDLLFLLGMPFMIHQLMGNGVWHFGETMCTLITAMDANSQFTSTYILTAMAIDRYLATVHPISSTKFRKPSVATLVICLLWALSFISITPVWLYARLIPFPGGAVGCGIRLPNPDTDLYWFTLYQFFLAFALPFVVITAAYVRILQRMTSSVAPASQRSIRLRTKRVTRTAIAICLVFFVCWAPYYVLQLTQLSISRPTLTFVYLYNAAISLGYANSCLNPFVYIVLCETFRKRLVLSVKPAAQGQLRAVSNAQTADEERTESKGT

Sequence of Melanin-concentrating hormone receptor 2 (Q969V1 whole entry): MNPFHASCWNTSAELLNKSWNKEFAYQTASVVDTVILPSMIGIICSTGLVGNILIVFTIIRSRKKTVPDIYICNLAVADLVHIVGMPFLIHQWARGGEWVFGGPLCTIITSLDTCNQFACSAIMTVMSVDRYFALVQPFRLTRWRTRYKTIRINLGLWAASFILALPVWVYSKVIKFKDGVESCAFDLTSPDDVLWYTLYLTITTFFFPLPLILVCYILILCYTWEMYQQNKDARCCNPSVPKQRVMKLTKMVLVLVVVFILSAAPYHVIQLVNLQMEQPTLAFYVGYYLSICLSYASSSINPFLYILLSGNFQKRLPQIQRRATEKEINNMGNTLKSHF

| Ki [1] | Ki [2] | SMILES |
| --- | --- | --- |
| > 3000 nM | – | CC(=O)N[C@@H]1CCN(CC(=O)N(CCc2ccc(-c3cccc(C#N)c3)cc2)CC(=O)Nc2cc(Cl)cc(Cl)c2)C1 |
| > 3000 nM | – | N#Cc1cccc(-c2ccc(CCN(CC(=O)Nc3cc(Cl)cc(Cl)c3)C(=O)CN3CC[C@@H](O)C3)cc2)c1 |
| > 3000 nM | 131 nM | CC(C)(c1ccc(-c2cccc(C#N)c2)cc1)N(CC(=O)Nc1cc(Cl)cc(Cl)c1)C(=O)CN1CCCC1 |
| > 3000 nM | – | N#Cc1cccc(-c2ccc(CCN(CC(=O)Nc3cc(Cl)cc(Cl)c3)C(=O)CCN3CC[C@@H](O)C3)cc2)c1 |
| > 3000 nM | – | N#Cc1cccc(-c2ccc(CCN(CC(=O)Nc3cc(Cl)cc(Cl)c3)C(=O)CCN3CCCC3)cc2)c1 |
| > 3000 nM | – | N#Cc1cccc(-c2ccc(CCN(CC(=O)Nc3cc(Cl)cc(Cl)c3)C(=O)CN3CCCC3)cc2)c1 |
| > 3000 nM | 48 nM | N#Cc1cccc(-c2ccc(CN(CCCN3CCCC3)C(=O)Nc3cc(Cl)cc(Cl)c3)cc2)c1 |
| > 3000 nM | 76 nM | C[C@H](c1ccc(-c2cccc(C#N)c2)cc1)N(CC(=O)Nc1cc(Cl)cc(Cl)c1)C(=O)CCCN1CC[C@H](O)C1 |
| > 3000 nM | – | N#Cc1cccc(-c2ccc(CN(CC(=O)Nc3cc(Cl)cc(Cl)c3)C(=O)CN3CCCC3)cc2)c1 |
| > 3000 nM | 287 nM | N#Cc1cccc(-c2ccc(CN(CCN3CCCC3)C(=O)Nc3ccc(F)c(Cl)c3)cc2)c1 |

The remaining lines, values behind:

| SMILES | Ki [1] | Ki [2] |
| --- | --- | --- |
| C[C@@H](c1ccc(-c2cccc(C#N)c2)cc1)N(CC(=O)Nc1cc(Cl)cc(Cl)c1)C(=O)CN1CC[C@H](O)C1 | > 3000 nM | 16 nM |
| N#Cc1cccc(-c2ccc(CCN(CC(=O)Nc3cc(Cl)cc(Cl)c3)C(=O)CCN3CC[C@H](O)C3)cc2)c1 | > 3000 nM | – |
| N#Cc1cccc(-c2ccc(CN(CC(=O)Nc3cc(Cl)cc(Cl)c3)C(=O)CN3CC[C@H](O)C3)cc2)c1 | > 3000 nM | – |
| N#Cc1cccc(-c2ccc(CN(CCN3CCCC3)C(=O)Nc3ccc(F)c(C(F)(F)F)c3)cc2)c1 | > 3000 nM | 159 nM |
| C[C@H](c1ccc(-c2cccc(C#N)c2)cc1)N(CC(=O)Nc1cc(Cl)cc(Cl)c1)C(=O)CN1CC[C@H](O)C1 | > 3000 nM | 31 nM |
| N#Cc1cccc(-c2ccc(CCN(CC(=O)Nc3cc(Cl)cc(Cl)c3)C(=O)CN3CC[C@H](O)C3)cc2)c1 | > 3000 nM | – |
| C[C@H](c1ccc(-c2cccc(C#N)c2)cc1)N(CC(=O)Nc1cc(Cl)cc(Cl)c1)C(=O)CCN1CC[C@H](O)C1 | > 3000 nM | 23 nM |
| C[C@@H](c1ccc(-c2cccc(C#N)c2)cc1)N(CC(=O)Nc1cc(Cl)cc(Cl)c1)C(=O)CCN1CC[C@H](O)C1 | > 3000 nM | 18 nM |
| N#Cc1cccc(-c2ccc(CN(CC(=O)Nc3cc(Cl)cc(Cl)c3)C(=O)CN3CC[C@@H](O)C3)cc2)c1 | > 3000 nM | – |
| N#Cc1cccc(-c2ccc(CN(CCN3CCCC3)C(=O)Nc3cc(Cl)cc(Cl)c3)cc2)c1 | > 3000 nM | 151 nM |
| N#Cc1cccc(-c2ccc(CN(CCCN3CCCC3)C(=O)Nc3ccc(F)c(C(F)(F)F)c3)cc2)c1 | > 3000 nM | 70 nM |
| N#Cc1cccc(-c2ccc(CN(CC(=O)Nc3cc(Cl)cc(Cl)c3)C(=O)CCN3CCCC3)cc2)c1 | > 3000 nM | – |
| N#Cc1cccc(-c2ccc(CN(CCCN3CCCC3)C(=O)Nc3ccc(F)c(Cl)c3)cc2)c1 | > 3000 nM | 48 nM |
